# Data as given in patent US20090176714A1, “METHOD OF REDUCING THE EFFECTS OF ABeta AND COMPOSITIONS THEREFORE” (priority 2004, published 2009).
# How the values were obtained:
# [1] = system: human cortical slices; experiment: TUNEL/NeuN staining of human cortical slices; assay type: cell-based
# Procedure: β-amyloid1-42 and reverse Aβ (Aβ42-1) were obtained from BACHEM (Torrance, Calif.). These peptides were dissolved in 0.1% NH3OH at 222 μM. For treatments, Aβ or reverse Aβ was aggregated at 50 μM in Neurobasal media with B-27 supplement and 0.5 mM glutamine at 37° C. for 24 hours. Then, the slice culture media was removed, and the slices were treated with 1 mL of 25 μM or 50 μM Aβ, reverse Aβ, or vehicle for 24 hour. Human TTR (Calbiochem) was added to slices together with the Aβ treatment at final concentrations of 0.03, 0.3, and 3 μM TTR. sAPPα was obtained from Sigma (St. Louis, Mo.). Unless otherwise stated, all sAPPα treatments were performed at 1 nM 48 hours prior to the addition of Aβ. The 10 amino acid fragment of the carboxyl-terminal region of sAPPα (592-601 of APP695; SEVKMDAEFR was added according to the same protocol for sAPPα. Because a variable amount of tissue was obtained from each patient, not all treatments were performed on all patients.
# Cortical slice cryosections were stained with terminal deoxynucleotidyl transferase-mediated, dUTP nick end labeling (TUNEL) and with an anti-NeuN antibody. Cells with DNA fragmentation were determined by the terminal deoxynucleotidyl transferase incorporation of fluorescein isothiocyanate (FITC)-12-dUTP into DNA (In Situ Cell Death Detection kit, Roche Biochem, Indianapolis, Ind.). At least 3 random images per slice were generated by confocal analysis at 600× magnification. The number of TUNEL positive, NeuN positive, and both TUNEL and NeuN positive cells were then quantified.
# [2] = system: hippocampal slices; experiment: TUNEL and Nissl staining of hippocampal slices; assay type: cell-based, mouse; details: 25 μM or 50 μM Aβ
# Procedure: Hippocampal slice cryosections from 3 animals per treatment were stained with terminal deoxynucleotidyl transferase-mediated, dUTP nick end labeling (TUNEL). Cells with DNA fragmentation were determined by the terminal deoxynucleotidyl transferase incorporation of fluorescein isothiocyanate (FITC)-12-dUTP into DNA (In Situ Cell Death Detection kit, Roche Biochem, Indianapolis, Ind.). Other sections were stained with cresyl violet acetate, and the neurons with healthy nuclei as well as the neurons with condensed and clumped chromatin were counted within the neuronal fields.
# β-amyloid1-42 and reverse Aβ (Aβ42-1) were obtained from BACHEM (Torrance, Calif.). These polypeptides were dissolved in 0.1% NH3OH at 222 μM. For treatments, Aβ was aggregated at 50 μM in Neurobasal media with B-27 supplement and 1 mM glutamine at 37° C. for 24 hours. Then, the slice culture media was removed, and the slices were treated with 1 mL of 25 μM or 50 μM Aβ, reverse Aβ, or vehicle for 24 hours. Human TTR (Calbiochem) or IGF-2 (Peprotech, Rocky Hill, N.J.) was added to slices together with the Aβ treatment at final concentrations of 3 μM (TTR) or 500 nM (IGF-2). sAPPα was prepared as described previously (Mattson et al., Neuron, 10:243-254 (1993)).
# Unless otherwise stated, all sAPPα treatments were performed at 1 nM 48 hours prior to the addition of Aβ. […]
# [3] = system: hippocampi of mice; experiment: Stereotaxic injection into mouse hippocampus, quantitative real-time PCR; assay type: in vivo; details: estimated 1 nM intra-hippocampal concentration, 48 hours after injection
# Procedure: Ten week old B6/SJL mice were stereotaxically injected on the right side of their hippocampi with sAPPα, a 10 amino acid fragment, or a scrambled 10-mer to an estimated 1 nM intra-hippocampal concentration. The contralateral sides were injected with artificial cerebrospinal fluid. Each injection consisted of […] of solution delivered over the period of 10 minutes. 48 hours after surgery, the mice were perfused with cold PBS, and their hippocampi were dissected and stored in stabilizing solution for subsequent RNA extraction.
# RNA was extracted from hippocampal samples, DNase treated, and reverse transcribed. The cDNA was then used in quantitative real-time PCR performed with SYBR green on the Roche LightCycler system. Portions of each RNA sample were also used in no-RT traditional PCR reactions to validate the absence of DNA contamination.
# [4] = Aβ treatment, 1 subject, FIG. 6B
Substance,DNA strand breaks as indicated by TUNEL ([1]; 50 μM Aβ),"Percent of neurons that were TUNEL positive (% TUNEL/NeuN) [1, 4]","Percent of total TUNEL positive cells (% TUNEL) [1, 4]",DNA strand breaks as indicated by TUNEL [2],Percent of neurons with chromatin condensation ([2]; FIG. 1),Expression of IGFBP2 in treated vs control side of hippocampus ([3]; FIG. 8),Expression of IGF2 in treated vs control side of hippocampus ([3]; FIG. 10)
β-amyloid1-42 [Aβ],resulted in DNA strand breaks,increased,increased,resulted in DNA strand breaks,significant increase,,
SEVKMDAEFR,,,,,,induced an increase in expression,induced an increase in expression
